Measurements: patent US20200264182A1, “METHOD FOR DETECTING PROSTATE CANCER” (J-OIL MILLS, INC., priority 2017, published 2020)

Experiments:
[1] = FAC binding constant; settings: at 25° C.
Method: Details of the FAC method are described in Patent Document 2 filed by some of the present applicants, for example.
Binding constants (at 25° C.) of PhoSL, SRL, NSL and LSL belonging to the fucose α1→6 specific lectin for various sugar chains are shown in Tables 2 to 5.

[2] = test system: serum fucosylated PSA; test: Sandwich ELISA, anti-PSA antibody and biotin-labeled lectin; assay type: binding, human; settings: for Δ (=A − B): reaction value of Prostate cancer 4 minus Healthy 1; for lectin reaction value B of Healthy 1: serum of Healthy 1; for lectin reaction value A of Prostate cancer 4: serum of Prostate cancer 4, GS 6 (3 + 3)
Method: The anti-PSA antibody from which sugar chains had been removed was diluted to 5 μg/mL with PBS. 25 μL of this diluted solution was added to each well of an ELISA plate and allowed to stand at 37° C. for 12 hours, and then the additive solution was discarded.
150 μL of PBS containing 0.05% Tween 20 (product name: polyoxyethylene sorbitan monolaurate, from Nacalai Tesque, Inc.) was added to each well, and then the additive solution was discarded. This manipulation was repeated three times in total.
25 μL of 1% BSA/PBS was added to each well and allowed to stand at 37° C. for 1 hour, and then the additive solution was discarded.
150 μL of PBS containing 0.05% Tween 20 was added to each well, and then the additive solution was discarded. This manipulation was repeated three times in total.
To graph a calibration curve, 25 μL of the fucosylated PSA reference standard diluted with 1% BSA/PBS to a concentration of 0 to 200 ng/mL was added to each well and allowed to stand at room temperature for 1 hour, and then the additive solution was discarded. In addition, to detect the fucosylated PSA in the serum of the subject by the lectin, 25 μL of serum of “Healthy 1” and “Prostate cancer 4” 2-fold diluted with PBS was added to each well and allowed to stand at room temperature for 1 hour, and then the additive solution was discarded.
In Reference Example 1, 25 μL of a biotin-labeled PhoSL diluted to 0.1 μg/mL with 0.1% BSA/PBS (pH 7.4) was added to each well and allowed to stand at 4° C. for 30 minutes, and then the additive solution was discarded. In Example 1, 25 μL of a biotin-labeled PhoSL diluted to 0.1 μg/mL with 0.1% BSA/10-fold diluted PBS+glycine-NaOH (pH 9.6) was added to each well and allowed to stand at 4° C. for 30 minutes, and then the additive solution was discarded.
25 μL of a horseradish peroxidase (HRP)-labeled streptavidin solution (from Vector Laboratories, Inc., concentration: 0.4 μg/mL, in 1% BSA/PBS) was added to each well and allowed to stand at room temperature for 30 minutes, and then the additive solution was discarded.
25 μL of chromogenic substrate for HRP (product name: TMB, from Kirkegaard & Perry Laboratories, Inc.) was added to each well and allowed to stand at room temperature for 10 minutes.
25 μL of 1M phosphoric acid was added to terminate the reaction.
Absorbance (Ab) at 450 nm and 630 nm was measured using a plate reader, and a measurement (Ab450-630) was obtained.
A calibration curve was graphed by plotting signals (reaction values, Ab450-630) of the fucosylated PSA reference standard with the biotin-labeled PhoSL. A Signal (Ab450-630) of the biotin-labeled PhoSL corresponding to the fucosylated PSA concentration of 10 ng/mL was defined as 10 U/mL.
The signals of biotin-labeled PhoSL (Ab450-630) for the serum fucosylated PSA in the subject samples A were assigned to the calibration curve to calculate reaction values (unit: U/mL).
The PhoSL reaction values for the subject samples A were measured by the same operation as in Example 1. From the PhoSL reaction values, an average value and a median value were determined. Furthermore, a standard cutoff value (89.7 U/mL) was used to determine a detection rate (positive rate) of the prostate cancer patients, and a false detection rate (false positive rate) of the healthy persons.
Comparative Example 2 in Table 9 indicates results of detecting the serum fucosylated PSA using AAL (AAL reaction values) in the subject samples A. Specifically, in Reference Example 1, AAL reaction values were measured in the same manner as in Reference Example 1 except that the biotin-labeled PhoSL was replaced with a biotin-labeled AAL. A standard cut-off value for the AAL reaction values was 894.8 U/mL. As in Example 2, an average value, a median value, a positive rate and a false positive rate were determined from the AAL reaction values.

Binding constant for sugar chain No. 504 ([1]; sugar chain having no fucose): <1000 M⁻¹
Binding constant for sugar chain No. 701 ([1]; sugar chain having no fucose): <1000 M⁻¹
Binding constant for sugar chain No. 702 ([1]; sugar chain having no fucose): <1000 M⁻¹
Binding constant for sugar chain No. 703 ([1]; sugar chain having no fucose): <1000 M⁻¹
Binding constant for sugar chain No. 704 ([1]; sugar chain having no fucose): <1000 M⁻¹
Binding constant for sugar chain No. 705 ([1]; sugar chain having no fucose): <1000 M⁻¹
Binding constant for sugar chain No. 706 ([1]; sugar chain having no fucose): <1000 M⁻¹
Binding constant for sugar chain No. 707 ([1]; sugar chain having no fucose): <1000 M⁻¹
Binding constant for sugar chain No. 708 ([1]; sugar chain having no fucose): <1000 M⁻¹
Binding constant for sugar chain No. 709 ([1]; sugar chain having no fucose): <1000 M⁻¹
Binding constant for sugar chain No. 710 ([1]; sugar chain having no fucose): <1000 M⁻¹
Binding constant for sugar chain No. 711 ([1]; sugar chain having no fucose): <1000 M⁻¹
Binding constant for sugar chain No. 712 ([1]; sugar chain having no fucose): <1000 M⁻¹
Binding constant for sugar chain No. 713 ([1]; sugar chain having no fucose): <1000 M⁻¹
Binding constant for sugar chain No. 715 ([1]; sugar chain having no fucose): <1000 M⁻¹
Binding constant for sugar chain No. 716 ([1]; sugar chain having no fucose): <1000 M⁻¹
Binding constant for sugar chain No. 717 ([1]; sugar chain having no fucose): <1000 M⁻¹
Binding constant for sugar chain No. 724 ([1]; sugar chain having no fucose): <1000 M⁻¹
Binding constant for sugar chain No. 725 ([1]; sugar chain having no fucose): <1000 M⁻¹
Binding constant for sugar chain No. 732 ([1]; sugar chain having no fucose): <1000 M⁻¹
Binding constant for sugar chain No. 733 ([1]; sugar chain having no fucose): <1000 M⁻¹
Binding constant for sugar chain No. 734 ([1]; sugar chain having no fucose): <1000 M⁻¹
Binding constant for sugar chain No. 735 ([1]; sugar chain having no fucose): <1000 M⁻¹
Binding constant for sugar chain No. 736 ([1]; sugar chain having no fucose): <1000 M⁻¹
Binding constant for sugar chain No. 737 ([1]; sugar chain having no fucose): <1000 M⁻¹
Binding constant for sugar chain No. 738 ([1]; sugar chain having no fucose): <1000 M⁻¹
Binding constant for sugar chain No. 901 ([1]; sugar chain having no fucose): <1000 M⁻¹
Binding constant for sugar chain No. 902 ([1]; sugar chain having no fucose): <1000 M⁻¹
Binding constant for sugar chain No. 903 ([1]; sugar chain having no fucose): <1000 M⁻¹
Binding constant for sugar chain No. 905 ([1]; sugar chain having no fucose): <1000 M⁻¹
Binding constant for sugar chain No. 906 ([1]; sugar chain having no fucose): <1000 M⁻¹
Binding constant for sugar chain No. 907 ([1]; sugar chain having no fucose): <1000 M⁻¹
Binding constant for sugar chain No. 015 ([1]; sugar chain having α1→6 fucose): 49000 M⁻¹
Binding constant for sugar chain No. 201 ([1]; sugar chain having α1→6 fucose): 64000 M⁻¹
Binding constant for sugar chain No. 202 ([1]; sugar chain having α1→6 fucose): 61000 M⁻¹
Binding constant for sugar chain No. 203 ([1]; sugar chain having α1→6 fucose): 52000 M⁻¹
Binding constant for sugar chain No. 401 ([1]; sugar chain having α1→6 fucose): 57000 M⁻¹
Binding constant for sugar chain No. 402 ([1]; sugar chain having α1→6 fucose): 44000 M⁻¹
Binding constant for sugar chain No. 403 ([1]; sugar chain having α1→6 fucose): 56000 M⁻¹
Binding constant for sugar chain No. 404 ([1]; sugar chain having α1→6 fucose): 58000 M⁻¹
Binding constant for sugar chain No. 405 ([1]; sugar chain having α1→6 fucose): 54000 M⁻¹
Binding constant for sugar chain No. 406 ([1]; sugar chain having α1→6 fucose): 38000 M⁻¹
Binding constant for sugar chain No. 407 ([1]; sugar chain having α1→6 fucose): 10000 M⁻¹
Binding constant for sugar chain No. 410 ([1]; sugar chain having α1→6 fucose): 39000 M⁻¹
Binding constant for sugar chain No. 418 ([1]; sugar chain having α1→6 fucose): 4300 M⁻¹
Binding constant for sugar chain No. 601 ([1]; sugar chain having α1→6 fucose): 10000 M⁻¹
Binding constant for sugar chain No. 602 ([1]; sugar chain having α1→6 fucose): 32000 M⁻¹
Substance: SRL: fucose α1→6 specific lectin that can be extracted from Stropharia rugosoannulata, SEQ ID No. 2
Δ (=A − B) ([2]; pH in lectin reaction 7.4): 126.3 U/mL
Δ (=A − B) ([2]; pH in lectin reaction 9.6): 217.7 U/mL
lectin reaction value B of Healthy 1 ([2]; pH in lectin reaction 7.4): 20.0 U/mL
lectin reaction value B of Healthy 1 ([2]; pH in lectin reaction 9.6): 16.8 U/mL
lectin reaction value A of Prostate cancer 4 ([2]; pH in lectin reaction 7.4): 146.3 U/mL
lectin reaction value A of Prostate cancer 4 ([2]; pH in lectin reaction 9.6): 234.5 U/mL
